The structures appear in SMILES notation.

The assay concerns the target T1, aromatase (Homo sapiens, UniProt P11511).
T1 construct: human placental microsome (one obtained by centrifugation at 105,000); from tissue; host or cells: human placenta, microsomes (washed with dithiothreitol, freeze-dried)
T1 sequence (P11511 1-503): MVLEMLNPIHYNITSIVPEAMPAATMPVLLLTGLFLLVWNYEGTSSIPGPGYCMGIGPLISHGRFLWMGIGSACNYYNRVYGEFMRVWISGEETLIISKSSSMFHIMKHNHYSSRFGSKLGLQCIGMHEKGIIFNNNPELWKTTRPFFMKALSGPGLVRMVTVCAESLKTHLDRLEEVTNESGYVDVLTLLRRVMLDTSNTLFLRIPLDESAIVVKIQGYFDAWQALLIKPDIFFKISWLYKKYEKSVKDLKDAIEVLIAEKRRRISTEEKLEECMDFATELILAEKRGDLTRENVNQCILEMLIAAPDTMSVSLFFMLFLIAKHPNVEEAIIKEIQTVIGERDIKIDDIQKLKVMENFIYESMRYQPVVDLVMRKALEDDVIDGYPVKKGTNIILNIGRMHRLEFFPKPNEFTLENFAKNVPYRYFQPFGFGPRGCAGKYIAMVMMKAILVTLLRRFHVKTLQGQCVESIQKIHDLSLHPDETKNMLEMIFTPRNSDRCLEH
Nature of the assay: aromatase inhibition action (3H2O liberated by aromatization of [1,2-3H] androstenedione, human placental microsome). Conditions: freeze-dried human placental microsome 150 μg; 2 μM [1,2-3H] androstenedione; 180 μM NADPH; pH 7.5; 37° C., 20 minutes. The format is biochemical. The procedure:
(1) Assay of aromatase inhibition action
According to the method of Ryan (The Journal of Biological Chemistry, 234, 268-272, 1959), human placental microsome (one obtained by centrifugation at 105,000 × g for 60 minutes) was prepared. A microsome was used after being washed twice with 0.5 mM dithiothreitol solution, freeze-driedand stored at -20° C.
Aromatase inhibition action was assayed according to the method developed by Tompson and Siiteri (The Journal of Biological Chemistry, 249, 5373-5378, 1974). The method is to determine the amount of ^3 H2 O liberated by aromatization of [1,2-^3 H] androstenedione. The experiment using the enzyme is carried out in 67 mM phosphate buffer of pH 7.5 so that the amount of the last incubation liquid gets to be 0.5 mi. The incubation liquid contains 180 μM NADPH, 2 μM [1,2-^3 H] androstenedione, 150 μg of the freeze-dried human placental microsome, 25 μl of methanol and a test compound in various concentrations. The incubation is carried out in the air at 37° C. for 20 minutes, 3 ml of chloroform is added to finish the reaction, and then the mixture is stirred for 40 seconds. Then, centrifugation is conducted at 700 × g for 10 minutes, 0.3 ml of the aqueous solution is removed from the supernatant, the scintillation mixture is added, and the amount of ^3 H2 O formed is determined
One may read the IC50 as the concentration that inhibits the measured activity by half. For `C[C@]12CCC(=O)C(O)=C1CC[C@@H]1[C@@H]2CC[C@]2(C)C(=O)OCC[C@@H]12` [Example 31, 4-hydroxy-D-homo-17-oxaandrost-4-ene-3,17a-dione], the IC50 is 0.6 µM. To `C[C@]12CCCC=C1CC[C@@H]1[C@@H]2CC[C@]2(C)C(=O)OCC[C@@H]12` [Example 25, D-homo-17-oxaandrost-4-en-17a-one] belongs 0.73 µM; to `C[C@]12CC[C@H]3[C@@H](CCC4=C(O)C(=O)CC[C@@]43C)[C@@H]1CCOC2` [Example 56, 4-hydroxy-D-homo-17-oxaandrost-4-en-3-one], 1.9 µM; to `C[C@]12CCCC=C1CC[C@@H]1[C@@H]2CC[C@]2(C)C(=O)OC[C@@H]12` [Example 3, 16-oxaandrost-4-en-17-one], 1.2 µM. For `C[C@]12CCCC=C1[C@@H]1[C@H]([C@@H]3[C@@H]2CC[C@]2(C)C(=O)OCC[C@@H]32)C1(F)F` [Example 28, 6α,7α-difluoromethylene-D-homo-17-oxaandrost-4-en-17a-one], the half-inhibitory concentration (IC50) amounted to 1.3 µM. On to `C[C@]12CC[C@H]3[C@@H](C=CC4=CC(=O)C=C[C@@]43C)[C@@H]1CCOC2` [Example 51, D-homo-17-oxaandrosta-1,4,6-trien-3-one], for which the IC50 is 2.9 µM. For `C[C@]12CC[C@H]3[C@@H](CC(=O)C4=CC(=O)CC[C@@]43C)[C@@H]1CCOC2` [Example 50, D-homo-17-oxaandrost-4-ene-3,6-dione] the value was 2.7 µM; for `C=C1C[C@@H]2[C@H](CC[C@]3(C)C(=O)OCC[C@@H]23)[C@@]2(C)C=CC(=O)C=C12` [Example 36, 6-methylene-17-oxa-D-homoandrosta-1,4-diene-3,17a-dione], 2.1 µM.
